Earlier results as cited in patent publication US20250268950A1, “PRENATAL SUPPLEMENT” (Arizona Board of Regents on Behalf of Arizona State …, priority 2021, published 2025).
Read-outs that look alike come from different tables or passages of the source.

How the values were obtained:
[1] = for blood niacin lower than healthy non-pregnant controls: 20 mg/day, 563 US women
[2] = Table 12
[3] = meta-analysis of 7 studies, 5-10 mg, usually repeated, imminent very preterm birth
[4] = one or more maternal doses of 10 mg
[5] = Cochrane, ≥1 g/day, 13 studies, 15,730 women
[6] = meta-analysis of 27 trials, 28,492 women
[7] = meta-analysis of seven RCTs, women with gestational diabetes

Compound: [Se] [Selenium]
- reduction of odds of preeclampsia or PIH (pregnant women; 60 i.g/day, 230 women in the UK): 65%
- pregnancy-induced hypertension (pregnant women; 100 i.g during last 6-8 weeks, women at risk (vs. 23%)): 8%
- gestational edema (pregnant women; 100 i.g during last 6-8 weeks, women at risk (vs. 33%)): 15%
- postpartum depression (pregnant women; 100 i.g/day): treat postpartum depression
- existing gestational edema cured (pregnant women; 100 i.g, 26 cases (1 out of 13 with placebo)): 88%
- glucose, insulin, CRP, oxidative stress (pregnant women; 200 i.g/day for 6 weeks, 70 women with gestational diabetes): significant improvements in fasting glucose, serum insulin, C-reactive protein, and oxidative stress
- rate of permanent hypothyroidism (pregnant women; 200 i.g/day, women at high risk (vs. 20%)): 12%
- rate of postpartum thyroid deficiency (pregnant women; 200 i.g/day, women at high risk (vs. 49%)): 29%

Compound: Vitamin K
- risk of childhood cancer (infants; meta-analysis of 6 studies, infantile supplementation): no risk of childhood cancer
- brain bleeding, RR (non-significant) (infants; [3]): 0.76
- severe brain bleeding, RR (infants; [3]): 0.58
- vitamin K level in the infant vs un-supplemented controls, times higher [1, 4]: 2
- vitamin K level in the mother vs un-supplemented controls, times higher [1, 4]: 100
- vitamin K level ([1]; pregnant women with previous bariatric surgery, 10 mg per week): normal or above-normal level of vitamin K

Compound: Nc1nc2ncc(CNc3ccc(C(=O)N[C@@H](CCC(=O)O)C(=O)O)cc3)nc2c(=O)[nH]1 [Folate]
- serum folate levels at postpartum ([1]; 355 mcg plus iron supplement, Scotland): sufficient to maintain median serum folate levels at postpartum that were equivalent to that of healthy non-pregnant women

Compound: Nc1nc2ncc(CNc3ccc(C(=O)N[C@@H](CCC(=O)O)C(=O)O)cc3)nc2c(=O)[nH]1 [folic acid]
- risk of ASD in the child, RR (infants; meta-analysis of 6 prospective studies, maternal supplementation): 0.64
- NTDs, OR (infants; meta-analysis, multi-vitamin supplement containing folic acid): 0.67
- prevalence of gestational diabetes (pregnant women; women with PCOS, folic acid only 1.5 mg): 54%
- average blood folate level ([1]; 1000 mcg/day, each trimester, 563 US women (10 ng/ml in controls)): 25 to 26 ng/mL

Compound: [Ca] [Calcium]
- preterm birth, RR (infants; Cochrane, ≥1 g/day): 0.76
- risk of ASD, OR (infants; retrospective study in China): 0.48
- incidence of pregnancy-induced hypertension (pregnant women; 120 mg (18% in control group)): 8.9%
- incidence of pregnancy-induced hypertension (pregnant women; 240 mg (18% in control group)): 7.5%
- incidence of pregnancy-induced hypertension (pregnant women; 1000 mg (18% in control group)): 8%
- incidence of pregnancy-induced hypertension (pregnant women; 2000 mg (18% in control group)): 4%
- cases of HELLP (pregnant women; 1500-2000 mg/day, two trials, 12,901 women (vs. 6 un-supplemented)): 16
- risk of preeclampsia, RR (pregnant women; Cochrane, low-dose <1 g/day, 10 trials, 2234 women): 0.38
- maternal death or serious morbidity, RR (pregnant women; Cochrane, ≥1 g/day): 0.80
- risk of high blood pressure, RR (pregnant women; [5]): 0.65
- risk of preeclampsia, RR (pregnant women; [5]): 0.45
- rate of proteinuric PIH (pregnant women; Hong Kong, 600 mg weeks 22-32, 1200 mg/day to birth (vs. 10.7% placebo)): 5.6%
- rate of non-proteinuric PIH (pregnant women; Hong Kong, 600 mg weeks 22-32, 1200 mg/day to birth (vs. 24% placebo)): 15%
- reducing risk of preeclampsia, PIH, and hypertension (pregnant women; Trinidad, 510 women, 1200 mg): much more effective than 600 mg of calcium plus aspirin
- gestational hypertension, RR (pregnant women; [6]): 0.70
- risk of preeclampsia, RR (pregnant women; [6]): 0.51

Compound: CC1=C(C/C=C(\C)CCC[C@H](C)CCC[C@H](C)CCCC(C)C)C(=O)c2ccccc2C1=O [phylloquinone]
- infant plasma vitamin K as % of formula-fed infants ([1]; lactating mothers 5 mg/day, infants 1 mg intramuscularly at birth): 50%

Compound: [Fe] [Iron]
- subjects in whom iron deficiency anemia was reduced (pregnant women; 60 mg 3×/day (180 mg total), 12 participants with IDA): 75%
- reduction of iron-deficiency anemia at term (pregnant women; meta-analysis, 6 trials, 1088 women): 67%
- reduction of iron deficiency at term (pregnant women; meta-analysis, 7 trials, 1256 women): 57%
- reduction of maternal anemia at term (pregnant women; meta-analysis, 14 trials, 2199 women, mostly 30-200 mg/day): 70%
- megaloblastic anemia (pregnant women; only iron (11% unsupplemented)): 6%

Compound: magnesium gluconate
- rate of pregnancy-induced hypertension (pregnant women; 184 mg/day): substantially reduced the rate of pregnancy-induced hypertension

Compound: O=C(O)CCCC[C@@H]1SC[C@@H]2NC(=O)N[C@@H]21 [Biotin]
- biotin levels ([1]; 30 mcg/day supplemental): sufficient to slightly increase levels of biotin above that of healthy controls
- treatment of biotin deficiency ([1]; 300 mcg/day for two weeks): sufficient to treat the deficiency

Compound: O=C(O)c1cccnc1 [Niacin]
- blood niacin lower than healthy non-pregnant controls ([1]; first trimester): 29%
- blood niacin lower than healthy non-pregnant controls ([1]; second trimester): 35%
- blood niacin lower than healthy non-pregnant controls ([1]; third trimester): 38%

Compound: CC1=C(/C=C/C(C)=C/C=C/C(C)=C/C=C/C=C(C)/C=C/C=C(C)/C=C/C2=C(C)CCCC2(C)C)C(C)(C)CCC1 [beta-carotene]
- benefit on night blindness compared with vitamin A (pregnant women; Nepal): about half as much benefit
- risk of anemia, RR (pregnant women; meta-analysis of 8 studies, supplementation): 0.81

Compound: CC(O)C(=O)[O-].CC(O)C(=O)[O-].[Zn+2] (stereo not drawn) [zinc lactate]
- low birth weight, preterm birth, intrauterine growth retardation (infants; 30 mg/day): great improvements in the incidence of low birth weight, preterm birth, and intrauterine growth retardation
- benefit (infants; doses of 5 and 10 mg): no benefit
- serum zinc ([1]; 30 mg): enough to slightly increase zinc levels

Compound: C[Se]CC[C@H](N)C(=O)O [selenome-thionine, selenomethionine]
- preeclampsia or preterm birth vs placebo (pregnant women; 100 i.g/day, randomized trial of 169 women): no significant differences were seen for either preeclampsia or preterm birth

Compound: C[N+](C)(C)CCO [Choline]
- safety (pregnant women; 900 mg/day of choline (as phosphatidylcholine)): safe
- Tolerable Upper Limit for Pregnant Women [2]: 3500 mg/day

Compound: CC/C=C\C/C=C\C/C=C\C/C=C\C/C=C\C/C=C\CCC(=O)O [DHA, Docosahexaenoic acid]
- increase of RBC DHA ([1]; 300 mg/day (controls decreased 10%)): 7%
- increase of RBC DHA ([1]; 600 g/day group (so in the source)): 21%

Compound: [Zn] [Zinc]
- reduction in chance of infant impetigo (infants; 30 mg/day): 54%
- preterm birth, RR (infants; meta-analysis of 16 randomized, controlled trials, mostly 20-30 mg): 0.86

Compound: O=S(=O)([O-])[O-].[Zn+2] [zinc sulfate]
- infant birth weight and head circumference (infants; 25 mg/day, women with relatively low plasma zinc): greater infant birth weights and head circumferences
- decrease of serum zinc, week 17 to week 31-36 ([1]; 20 mg, 138 Hispanic teenagers (14% non-supplemented)): 8%
- decrease of plasma zinc from beginning to end of pregnancy ([1]; 25 mg/day, U.S. women with low initial plasma zinc (11% un-supplemented)): 7%
- zinc levels ([1]; averaging 11 mg/day, U.S.): little effect on plasma levels but did increase hair and possibly saliva levels

Compound: calcium pantothenate
- blood levels of pantothenic acid ([1]; 10 mg/day): slightly higher blood levels of pantothenic acid compared to non-pregnant controls
- bound pantothenic acid as % of levels in controls ([1]; 60 mg from 4.5 months gestation, at 7.5 months): 59%
- free pantothenic acid vs controls, fold higher ([1]; 60 mg from 4.5 months gestation, at 7.5 months and at term): 2
- bound pantothenic acid as % of levels in controls ([1]; 60 mg from 4.5 months gestation, at term): 104%

Compound: omega-3 fatty acids
- neonatal care admissions, RR (possibly fewer) (infants; meta-analysis of 70 RCTs): 0.92
- perinatal death, RR (possibly reduced) (infants; meta-analysis of 70 RCTs): 0.75
- macrosomia, RR (possible) (infants; [7]): 0.48
- newborns' hyperbilirubinemia, RR (possible) (infants; [7]): 0.46
- prolonged gestation (>42 weeks), RR (infants; meta-analysis, 6 RCTs, 5141 participants): 1.61
- early preterm birth (<34 weeks), RR (infants; meta-analysis, 9 RCTs, 5204 participants): 0.58
- low birth weight, RR (infants; meta-analysis, 15 trials, 8449 participants): 0.90
- preterm birth (<37 weeks), RR (infants; meta-analysis, 26 RCTs, 10,304 participants): 0.89
- mean increase in length of gestation (infants; meta-analysis, 41 trials, 12,517 participants): 1.67 days
- risk of preeclampsia, RR (pregnant women; meta-analysis of 14 supplementation studies): 0.82
- preeclampsia, RR (possibly reduced) (pregnant women; meta-analysis of 70 RCTs): 0.84
- reduction of depression, SMD (pregnant women; meta-analysis of eight studies, 638 women with perinatal depression, 1-6 g/day): 0.65
- prevention of perinatal depression (pregnant women; meta-analysis of prophylactic supplementation studies): did not demonstrate a significant benefit
- HOMA-IR, std. MD (pregnant women; [7]): −0.52
- fasting plasma glucose, std. MD (pregnant women; [7]): −0.56
- high-sensitivity CRP, std. MD (pregnant women; [7]): −1.14

Compound: Cc1cc2nc3c(=O)[nH]c(=O)nc-3n(C[C@H](O)[C@H](O)[C@H](O)CO)c2cc1C [Riboflavin]
- cases of severe preeclampsia (pregnant women; 15 mg/day, Venezuela): significant decrease in the number of cases of severe preeclampsia

Compound: O=S(=O)([O-])[O-].[Mg+2] [magnesium sulfate, reference compound]
- reduction of risk of cerebral palsy (infants; 4-6 g intravenously, mothers at high risk of preterm birth, meta-analysis of five studies): approximately 32%
- maternal complications (pregnant women; 4-6 g intravenously): no major complications

Compound: Cc1ncc(C[n+]2csc(CCO)c2C)c(N)n1 [Thiamine]
- effect on glucose tolerance and intra-uterine growth (pregnant women; supplementation in pregnant women): improves their glucose tolerance, and stimulates intra-uterine growth
- thiamine levels lower than non-pregnant women ([1]; multi-vitamin containing 3 mg, 563 pregnant women): approximately 31%

Compound: CC(=O)[O-].CC(=O)[O-].[Zn+2] [zinc acetate]
- benefit of zinc form (infants; two studies): not beneficial

Compound: Cobalamin [Vitamin B12]
- levels lower at end of pregnancy vs healthy non-pregnant controls ([1]; 12 mcg/day, US): 38%
- maternal and infant B12 levels ([1]; 50 mcg/day during pregnancy and early lactation, India): significant increases in maternal B12 levels in blood and breastmilk, and infant levels of B12
- vitamin B12 levels during pregnancy ([1]; approximately 3× the RDA (diet 6 mcg + supplements 2.6 mcg), 26 women): enough to stabilize vitamin B12 levels during pregnancy
- decrease in serum B12 by third trimester vs first ([1]; total consumption of 2× the RDA): 30%
